Experimental data reported in patent publication US20190127354A1, “2,4,6,7-TETRASUBSTITUTED QUINOLINE COMPOUNDS AS INHIBITORS OF DNA […]” (FUNDACIÓN PARA LA INVESTIGACIÓN MÉDICA APLICADA, priority 2015, published 2019).

Tests used:
human DNMT1 = target: T1, human DNMT1 (Homo sapiens, UniProt P26358); assay: DNMT1 enzyme activity assay (TR-FRET, EPIgeneous methyltransferase assay); type: biochemical; details: human DNMT1, 15 minutes at 37° C.
T1 construct: purchased Reaction Biology Corp. DMT-21-124
T1 sequence (P26358 whole entry): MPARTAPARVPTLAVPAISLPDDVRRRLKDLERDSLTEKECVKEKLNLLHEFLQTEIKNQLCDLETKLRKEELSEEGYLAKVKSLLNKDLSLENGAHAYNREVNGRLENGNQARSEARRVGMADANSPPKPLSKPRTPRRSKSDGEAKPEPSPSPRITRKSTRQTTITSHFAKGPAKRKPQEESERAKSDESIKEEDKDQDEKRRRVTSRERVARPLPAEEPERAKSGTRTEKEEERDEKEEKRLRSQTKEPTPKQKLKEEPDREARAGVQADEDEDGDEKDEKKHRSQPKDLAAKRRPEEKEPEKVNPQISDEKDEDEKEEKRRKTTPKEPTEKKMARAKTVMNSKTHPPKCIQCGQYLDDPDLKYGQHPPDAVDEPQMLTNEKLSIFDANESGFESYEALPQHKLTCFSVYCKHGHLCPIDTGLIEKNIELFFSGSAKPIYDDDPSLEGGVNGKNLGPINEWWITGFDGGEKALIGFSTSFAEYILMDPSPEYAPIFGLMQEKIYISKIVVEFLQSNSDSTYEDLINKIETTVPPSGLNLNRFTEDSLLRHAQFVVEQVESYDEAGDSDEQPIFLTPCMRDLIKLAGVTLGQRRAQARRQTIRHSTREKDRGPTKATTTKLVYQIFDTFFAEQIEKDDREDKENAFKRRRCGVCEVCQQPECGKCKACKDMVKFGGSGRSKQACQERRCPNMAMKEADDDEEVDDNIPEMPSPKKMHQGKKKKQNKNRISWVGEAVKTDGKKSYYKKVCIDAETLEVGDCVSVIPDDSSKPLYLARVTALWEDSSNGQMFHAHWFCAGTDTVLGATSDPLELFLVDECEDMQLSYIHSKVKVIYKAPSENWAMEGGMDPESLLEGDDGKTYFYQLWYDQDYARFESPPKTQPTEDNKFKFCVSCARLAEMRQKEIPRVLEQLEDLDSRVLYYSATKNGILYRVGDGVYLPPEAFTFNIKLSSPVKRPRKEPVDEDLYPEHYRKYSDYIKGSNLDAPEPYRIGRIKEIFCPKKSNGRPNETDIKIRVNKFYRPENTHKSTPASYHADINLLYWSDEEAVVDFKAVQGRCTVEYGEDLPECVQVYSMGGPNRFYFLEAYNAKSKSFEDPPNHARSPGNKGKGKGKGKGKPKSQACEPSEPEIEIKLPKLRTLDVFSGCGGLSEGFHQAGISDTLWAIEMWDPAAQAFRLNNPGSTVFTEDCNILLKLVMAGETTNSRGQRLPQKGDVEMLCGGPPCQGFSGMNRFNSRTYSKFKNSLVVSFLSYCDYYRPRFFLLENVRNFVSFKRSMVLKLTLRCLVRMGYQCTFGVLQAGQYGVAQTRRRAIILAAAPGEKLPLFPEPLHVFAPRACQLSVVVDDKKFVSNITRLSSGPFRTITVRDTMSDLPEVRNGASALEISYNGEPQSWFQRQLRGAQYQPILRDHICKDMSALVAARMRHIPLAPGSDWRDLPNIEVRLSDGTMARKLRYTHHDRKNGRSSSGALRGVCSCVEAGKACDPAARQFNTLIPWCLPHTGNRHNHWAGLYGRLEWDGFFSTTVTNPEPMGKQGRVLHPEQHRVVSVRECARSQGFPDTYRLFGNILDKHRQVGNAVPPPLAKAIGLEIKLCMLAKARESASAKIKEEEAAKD
Procedure: DNMT1 Enzyme Activity Assay
The biochemical assay to measure DNMT1 enzyme activity relies on time-resolved fluorescence energy transfer (TR-FRET) between lumi4-Tb (donor) and d2 (acceptor) using the EPIgeneous methyltransferase assay (CisBio Cat#62SAHPEB). […] TR-FRET signal is inversely proportional to the concentration of SAH, product of DNMT1 enzyme activity, in the sample. The human DNMT1 was obtained from Reaction Biology Corp. (Cat# DMT-21-124).
Enzyme activity assay was carried out in a white 384-well plate in a final volume of 20 μl, as follow: • 4 μl of vehicle or studied compound 2.5× concentrated prepared in assay buffer (50 mM Tris-HCl, 1 mM EDTA, 1 mM DTT, 0.1% Triton X-100, 5% glycerol pH 7.5). Final percentage of DMSO was 0.5%. • 2 μl of 1 nM DNMT1 enzyme diluted in assay buffer.
(§1) For each well, fluorescence was measured at 620 nm and 665 nm. A ratio (665 nm/620 nm) was then calculated in order to minimize medium interferences. Positive control was obtained in the presence of the vehicle of the compounds. Calculated IC50 values were determined using GraphPrism using 4-parameters inhibition curve.

human G9a enzyme = target: T2, human G9a enzyme (Homo sapiens, UniProt Q96KQ7); assay: G9a enzyme activity assay (TR-FRET); type: biochemical; details: 1 hour at room temperature
T2 construct: purchased BPS Biosciences 51001; host or cells: baculovirus infected Sf9 cells
T2 sequence (Q96KQ7 1-1210): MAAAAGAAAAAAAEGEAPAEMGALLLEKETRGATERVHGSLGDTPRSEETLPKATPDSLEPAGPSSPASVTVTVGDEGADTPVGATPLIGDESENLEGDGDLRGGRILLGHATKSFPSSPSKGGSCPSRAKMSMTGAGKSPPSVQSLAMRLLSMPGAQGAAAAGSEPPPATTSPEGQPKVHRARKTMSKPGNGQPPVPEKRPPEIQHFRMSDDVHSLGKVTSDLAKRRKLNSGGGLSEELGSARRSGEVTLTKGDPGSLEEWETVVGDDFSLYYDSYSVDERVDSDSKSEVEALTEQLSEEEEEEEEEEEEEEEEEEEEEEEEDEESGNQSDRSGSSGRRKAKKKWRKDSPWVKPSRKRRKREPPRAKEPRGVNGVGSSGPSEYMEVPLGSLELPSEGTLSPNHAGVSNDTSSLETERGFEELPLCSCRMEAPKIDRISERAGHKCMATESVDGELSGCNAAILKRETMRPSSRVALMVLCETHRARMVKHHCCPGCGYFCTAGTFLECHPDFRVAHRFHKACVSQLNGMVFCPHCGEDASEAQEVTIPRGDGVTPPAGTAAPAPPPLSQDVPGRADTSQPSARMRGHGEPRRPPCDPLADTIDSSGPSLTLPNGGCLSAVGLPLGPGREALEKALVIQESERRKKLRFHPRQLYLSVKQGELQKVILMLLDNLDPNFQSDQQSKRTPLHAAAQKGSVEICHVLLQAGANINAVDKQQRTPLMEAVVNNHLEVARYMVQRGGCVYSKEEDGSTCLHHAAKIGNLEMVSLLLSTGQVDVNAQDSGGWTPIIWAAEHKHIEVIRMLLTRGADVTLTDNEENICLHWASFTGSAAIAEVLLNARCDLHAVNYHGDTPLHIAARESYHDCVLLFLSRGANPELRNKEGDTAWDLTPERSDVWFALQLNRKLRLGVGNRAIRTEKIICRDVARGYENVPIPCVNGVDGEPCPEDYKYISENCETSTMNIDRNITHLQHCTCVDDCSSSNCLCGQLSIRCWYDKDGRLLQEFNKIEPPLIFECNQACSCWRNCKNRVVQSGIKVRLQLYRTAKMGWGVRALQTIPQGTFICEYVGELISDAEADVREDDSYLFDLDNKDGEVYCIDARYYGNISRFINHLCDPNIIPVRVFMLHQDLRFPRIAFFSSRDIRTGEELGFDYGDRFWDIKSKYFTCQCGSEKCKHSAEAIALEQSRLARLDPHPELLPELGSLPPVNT
Procedure: G9a Enzyme Activity Assay
The biochemical assay to measure G9a enzyme activity relies on time-resolved fluorescence energy transfer (TR-FRET) between europium cryptate (donor) and XL665 (acceptor). […] The human G9a enzyme expressed in a baculovirus infected Sf9 cell expression system was obtained from BPS Biosciences (Cat. #51001). Enzyme activity assay was carried out in a white 384-well plate in a final volume of 20 μl, as follow: • 4 μl of vehicle or studied compound 2.5× concentrated prepared in assay buffer (50 mM Tris-HCl, 10 mM NaCl, 4 mM DTT, 0.01% Tween-20 pH9). Final percentage of DMSO was 0.5%. • 2 μl of 1 nM G9a enzyme diluted in assay buffer. […] Final concentration 150 nM. • Then, add 5 μl of streptavidin XL665 beads. Final concentration of 16 μM. • Read the plate after 1 hour of incubation at room temperature.
as §1, with “compounds. Negative control was obtained in the absence of G9a enzyme activity.” for “compounds.”

SMILES: COc1cc2c(N(C)C)cc(-c3ccc(C)o3)nc2cc1OCCCN1CCCC1 [Compound 1-12]
- IC50 (human DNMT1): 1 to 10 µM
- IC50 (human G9a enzyme): 1 to 10 µM

SMILES: COc1cc2c(C3CCN(C)CC3)cc(-c3ccc(C)o3)nc2cc1OCCCN1CCCC1 [Compound 4-02, 6-methoxy-2-(5-methyl-2-furyl)-4-(1-methyl-4-piperidyl)-7-(3-pyrrolidin-1-ylpropoxy)quinoline]
- IC50 (human DNMT1): 1 to 10 µM
- IC50 (human G9a enzyme): 1 to 10 µM

SMILES: COc1cc2c(N3CCC(CO)CC3)cc(-c3ccc(C)o3)nc2cc1OCCCN1CCCC1 [Compound 2-02]
- IC50 (human DNMT1): 1 to 10 µM
- IC50 (human G9a enzyme): 1 to 10 µM

SMILES: COc1cc2c(OCC3CCN(C)CC3)cc(-c3ccc(C)[nH]3)nc2cc1OCCCN1CCCC1 [Compound 3-03]
- IC50 (human DNMT1): 0.5 to 1 µM
- IC50 (human G9a enzyme): 0.1 to 0.5 µM

SMILES: COc1cc2c(N(C)CC3CCN(C)CC3)cc(-c3ccc(C)[nH]3)nc2cc1OCCCN1CCCC1 [Compound 1-06]
- IC50 (human DNMT1): 0.1 to 0.5 µM
- IC50 (human G9a enzyme): 0.1 to 0.5 µM

SMILES: COc1cc2c(N(C)C3CC4(CCN(C(C)C)CC4)C3)cc(-c3ccc(C)o3)nc2cc1OC1CC2(C1)CN(C)C2 (stereo not drawn) [Compound 1-14]
- IC50 (human DNMT1): 1 to 10 µM
- IC50 (human G9a enzyme): > 10 µM

SMILES: COc1cc2c(N(C)CC3CCN(C)CC3)cc(-c3ccc(C)o3)nc2cc1OCCCN1CCC(F)C1 (stereo not drawn) [Compound 1-20]
- IC50 (human DNMT1): 1 to 10 µM
- IC50 (human G9a enzyme): > 10 µM

SMILES: COc1cc2c(N(C)C3CCN(C)CC3)cc(-c3ccc(C)[nH]3)nc2cc1OCCCN1CCCC1 [Compound 1-07]
- IC50 (human DNMT1): 0.5 to 1 µM
- IC50 (human G9a enzyme): < 0.1 µM

SMILES: COc1cc2c(OC3CCN(C)CC3)cc(-c3ccc(C)o3)nc2cc1OC1CC2(C1)CN(C)C2 [Compound 3-06, 6-methoxy-7-[(2-methyl-2-azaspiro[3.3]heptan-6-yl)oxy]-2-(5-methyl-2-furyl)-4-[(1-methyl-4-piperidyl)oxy]quinoline]
- IC50 (human DNMT1): 1 to 10 µM
- IC50 (human G9a enzyme): > 10 µM

SMILES: COc1cc2c(OCC3CCN(C)CC3)cc(-c3ccc(C)o3)nc2cc1OCCCN1CCCC1 [Compound 3-02]
- IC50 (human DNMT1): 0.5 to 1 µM
- IC50 (human G9a enzyme): 1 to 10 µM

SMILES: COc1cc2c(N(C)C3CC4(CCN(C(C)C)CC4)C3)cc(-c3ccc(C)o3)nc2cc1OCCCN1CCCC1 [Compound 1-09]
- IC50 (human DNMT1): 0.5 to 1 µM
- IC50 (human G9a enzyme): 0.5 to 1 µM

SMILES: COc1cc2c(N(C)C3CC4(CCN(C)CC4)C3)cc(-c3ccc(C)o3)nc2cc1OCC1CCN(C)CC1 [Compound 1-08, 6-methoxy-N-methyl-N-(7-methyl-7-azaspiro[3.5]nonan-2-yl)-2-(5-methyl-2-furyl)-7-[(1-methyl-4-piperidyl)methoxy]quinolin-4-amine]
- IC50 (human DNMT1): 1 to 10 µM
- IC50 (human G9a enzyme): > 10 µM

SMILES: CCc1ccc(-c2cc(N(C)CC3CCN(C)CC3)c3cc(OC)c(OCC4CCN(C)CC4)cc3n2)o1 [Compound 1-16]
- IC50 (human DNMT1): 1 to 10 µM
- IC50 (human G9a enzyme): > 10 µM

SMILES: COc1cc2c(N(C)C3CCN(C)CC3)cc(-c3cc(C)oc3C)nc2cc1OCCCN1CCCC1 [Compound 1-05]
- IC50 (human DNMT1): 1 to 10 µM
- IC50 (human G9a enzyme): 1 to 10 µM

SMILES: COc1cc2c(N(C)CC3CCN(C)CC3)cc(-c3ccccc3)nc2cc1OCCCN1CCCC1 [Compound 1-22]
- IC50 (human DNMT1): 0.5 to 1 µM
- IC50 (human G9a enzyme): 1 to 10 µM

SMILES: COc1cc2c(N(C)C3CC4(CCN(C(C)C)CC4)C3)cc(-c3ccc(C)o3)nc2cc1OC1CC2(C1)CN(CC#N)C2 (stereo not drawn) [Compound 1-15]
- IC50 (human DNMT1): 1 to 10 µM
- IC50 (human G9a enzyme): > 10 µM

SMILES: CNC1CCN(c2cc(-c3ccc(C)[nH]3)nc3cc(OCCCN4CCCC4)c(OC)cc23)CC1 [Compound 2-03]
- IC50 (human DNMT1): 0.5 to 1 µM
- IC50 (human G9a enzyme): 0.1 to 0.5 µM

SMILES: COc1cc2c(N(C)CC3CCN(C)CC3)cc(-c3cc(C)oc3C)nc2cc1OCCCN1CCCC1 [Compound 1-19]
- IC50 (human DNMT1): 0.5 to 1 µM
- IC50 (human G9a enzyme): 0.5 to 1 µM

SMILES: COc1cc2c(N3CCC(C(C)(C)N)CC3)cc(-c3ccc(C)o3)nc2cc1OCCCN1CCCC1 [Compound 2-07]
- IC50 (human DNMT1): 1 to 10 µM
- IC50 (human G9a enzyme): 0.5 to 1 µM

SMILES: COc1cc2c(C=C3CCN(C)CC3)cc(-c3ccc(C)o3)nc2cc1OCCCN1CCCC1 [Compound 5-01, 6-methoxy-2-(5-methyl-2-furyl)-4-[(1-methyl-4-piperidylidene)methyl]-7-(3-pyrrolidin-1-ylpropoxy)quinoline]
- IC50 (human DNMT1): 1 to 10 µM
- IC50 (human G9a enzyme): > 10 µM

SMILES: CNC1CCN(c2cc(-c3ccc4occc4c3)nc3cc(OCCCN4CCCC4)c(OC)cc23)CC1 [Compound 2-04]
- IC50 (human DNMT1): 1 to 10 µM
- IC50 (human G9a enzyme): > 10 µM

SMILES: CCc1ccc(-c2cc(N(C)CC3CCN(C)CC3)c3cc(OC)c(OC4CC5(C4)CN(C)C5)cc3n2)o1 [Compound 1-10]
- IC50 (human DNMT1): 1 to 10 µM
- IC50 (human G9a enzyme): > 10 µM

SMILES: CNCC1CCN(c2cc(-c3ccccc3)nc3cc(OCCCN4CCCC4)c(OC)cc23)CC1 [Compound 2-09]
- IC50 (human DNMT1): 1 to 10 µM
- IC50 (human G9a enzyme): 0.1 to 0.5 µM

SMILES: COc1cc2c(N(C)C)cc(-c3ccc(C)[nH]3)nc2cc1OCCCN1CCCC1 [Compound 1-11]
- IC50 (human DNMT1): 1 to 10 µM
- IC50 (human G9a enzyme): 0.1 to 0.5 µM

SMILES: COc1cc2c(N3CCC(N(C)C)CC3)cc(-c3ccc(C)[nH]3)nc2cc1OCCCN1CCCC1 [Compound 2-05, 1-[6-methoxy-2-(5-methyl-1H-pyrrol-2-yl)-7-(3-pyrrolidin-1-ylpropoxy)-4-quinolyl]-N,N-dimethyl-piperidin-4-amine]
- IC50 (human DNMT1): 0.1 to 0.5 µM
- IC50 (human G9a enzyme): 0.1 to 0.5 µM

SMILES: COc1cc2c(N(C)CC3CCN(C)CC3)cc(C3CCCCC3)nc2cc1OCCCN1CCCC1 [Compound 1-21, 2-cyclohexyl-6-methoxy-N-methyl-N-[(1-methyl-4-piperidyl)methyl]-7-(3-pyrrolidin-1-ylpropoxy)quinolin-4-amine]
- IC50 (human DNMT1): 1 to 10 µM
- IC50 (human G9a enzyme): 0.1 to 0.5 µM

SMILES: COc1cc2c(N(C)CC3CCNCC3)cc(-c3ccccc3)nc2cc1OCCCN1CCCC1 [Compound 1-23, 6-methoxy-N-methyl-2-phenyl-N-(4-piperidylmethyl)-7-(3-pyrrolidin-1-ylpropoxy)quinolin-4-amine]
- IC50 (human DNMT1): 0.5 to 1 µM
- IC50 (human G9a enzyme): 0.1 to 0.5 µM

SMILES: COc1cc2c(N(C)C3CCC4(CC3)CN(C)C4)cc(-c3ccc(C)o3)nc2cc1OCCCN1CCCC1 [Compound 1-18]
- IC50 (human DNMT1): 1 to 10 µM
- IC50 (human G9a enzyme): 1 to 10 µM

SMILES: CNC1CCN(c2cc(-c3ccc(C)o3)nc3cc(OCCCN4CCCC4)c(OC)cc23)CC1 [Compound 2-01, 1-[6-methoxy-2-(5-methyl-2-furyl)-7-(3-pyrrolidin-1-ylpropoxy)-4-quinolyl]-N-methyl-piperidin-4-amine]
- IC50 (human DNMT1): 0.5 to 1 µM
- IC50 (human G9a enzyme): 1 to 10 µM

SMILES: CNCC1CCN(c2cc(C3CCCCC3)nc3cc(OCCCN4CCCC4)c(OC)cc23)CC1 [Compound 2-08, 1-[1-[2-cyclohexyl-6-methoxy-7-(3-pyrrolidin-1-ylpropoxy)-4-quinolyl]-4-piperidyl]-N-methyl-methanamine]
- IC50 (human DNMT1): 1 to 10 µM
- IC50 (human G9a enzyme): < 0.1 µM
